Assay results: PubChem BioAssay (NCI)
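GI50 is the concentration that inhibits growth by half. TGI marks complete inhibition of growth.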

Assays:
Experiment in all cases: NCI tumour cell line growth inhibition, 384-well format
[1] = tested on: SK-OV-3 ovarian
[2] = tested on: MOLT-4 leukemia
[3] = tested on: MALME-3M melanoma
[4] = tested on: UACC-62 melanoma
[5] = tested on: NCI/ADR-RES ovarian
[6] = tested on: SK-MEL-5 melanoma
[7] = tested on: HL-60(TB) leukemia
[8] = tested on: SF-295 CNS
[9] = tested on: NCI-H460 NSCLC
[10] = tested on: CAKI-1 renal
[11] = tested on: NCI-H522 lung
[12] = tested on: A549 NSCLC
[13] = tested on: SN12C renal
[14] = tested on: M14 melanoma
[15] = tested on: MDA-MB-231 breast
[16] = tested on: RPMI-8226 leukemia
[17] = tested on: HOP-62 NSCLC
[18] = tested on: OVCAR-5 ovarian
[19] = tested on: SF-539 CNS
[20] = tested on: OVCAR-4 ovarian
[21] = tested on: HCC-2998 colon
[22] = tested on: U251 glioblastoma
[23] = tested on: SF-268 CNS
[24] = tested on: HCT-116 colon
[25] = tested on: NCI-H322M lung
[26] = tested on: HS 578T breast
[27] = tested on: SK-MEL-28 melanoma
[28] = tested on: KM12 colon
[29] = tested on: MDA-MB-435 melanoma
[30] = tested on: LOX IMVI melanoma
[31] = tested on: SNB-75 CNS
[32] = tested on: MCF7 breast
[33] = tested on: BT-549 breast
[34] = tested on: OVCAR-8 ovarian
[35] = tested on: EKVX NSCLC
[36] = tested on: NCI-H23 lung
[37] = tested on: UACC-257 melanoma
[38] = tested on: OVCAR-3 ovarian
[39] = tested on: COLO 205 colon
[40] = tested on: SR leukemia
[41] = tested on: MDA-MB-468 breast

Question: Which results are given for `C[C@@H](O)[C@@H](C)Oc1nc(Nc2ccc(S(=N)(=O)C3CC3)cc2)ncc1C(F)(F)F` (some centres not stated)?
Answer: GI50 [1]: 41.7 nM; TGI [1]: > 100000 nM; GI50 [2]: 20.2 nM; TGI [2]: 35 nM; GI50 [3]: 23.5 nM; TGI [3]: 46.6 nM; GI50 [4]: 12.7 nM; TGI [4]: 27.9 nM; GI50 [5]: 67.3 nM; TGI [5]: 406 nM; GI50 [6]: < 10 nM; TGI [6]: 21.5 nM; GI50 [7]: < 10 nM; TGI [7]: 20.7 nM; GI50 [8]: 30.9 nM; TGI [8]: > 100000 nM; GI50 [9]: 12 nM; TGI [9]: 28.5 nM; GI50 [10]: 32.2 nM; TGI [10]: > 100000 nM; GI50 [11]: < 10 nM; TGI [11]: 24.9 nM; GI50 [12]: 33.4 nM; TGI [12]: > 100000 nM; GI50 [13]: 16.6 nM; TGI [13]: 36.4 nM; GI50 [14]: 19.7 nM; TGI [14]: 85.2 nM; GI50 [15]: 28.3 nM; TGI [15]: > 100000 nM; GI50 [16]: 15.2 nM; TGI [16]: 28.9 nM; GI50 [17]: 14.4 nM; TGI [17]: 44.8 nM; GI50 [18]: 16.8 nM; TGI [18]: 54.5 nM; GI50 [19]: 17.9 nM; TGI [19]: 36.4 nM; GI50 [20]: 21.3 nM; TGI [20]: 56.9 nM; GI50 [21]: 12 nM; TGI [21]: 33.3 nM; GI50 [22]: 20.2 nM; TGI [22]: 60 nM; GI50 [23]: 20.1 nM; TGI [23]: 58.6 nM; GI50 [24]: 12.5 nM; TGI [24]: > 100000 nM; GI50 [25]: 21.2 nM; TGI [25]: 46.7 nM; GI50 [26]: 24.4 nM; TGI [26]: 62.8 nM; GI50 [27]: 16.4 nM; TGI [27]: 39.5 nM; GI50 [28]: 23.4 nM; TGI [28]: > 100000 nM; GI50 [29]: 23.3 nM; TGI [29]: 64.5 nM; GI50 [30]: 14.6 nM; TGI [30]: 48.9 nM; GI50 [31]: 16.4 nM; TGI [31]: 33 nM; GI50 [32]: 24.1 nM; TGI [32]: > 100000 nM; GI50 [33]: 12.4 nM; TGI [33]: 27.1 nM; GI50 [34]: 18.8 nM; TGI [34]: 73.7 nM; GI50 [35]: 23.8 nM; TGI [35]: 52 nM; GI50 [36]: 17.1 nM; TGI [36]: 36.1 nM; GI50 [37]: 17.7 nM; TGI [37]: 37.2 nM; GI50 [38]: 18.2 nM; TGI [38]: 43.9 nM; GI50 [39]: 16.4 nM; TGI [39]: 42.6 nM; GI50 [40]: < 10 nM; TGI [40]: 13.2 nM; GI50 [41]: 15.9 nM; TGI [41]: 30.2 nM
